Measurements taken from patent publication US5017489A (priority 1988, dated 1991).
“Also recorded” adds a separate entry of the source. Read-outs that look alike come from different tables or passages of the source. One block for each compound: values may come before it.

Legend:
[1] = biological target: T1, CTL serine esterase (BLT-serine esterase) in extract of murine CTL clone G4 (Mus musculus, UniProt P11032)
T1 sequence (P11032 29-260): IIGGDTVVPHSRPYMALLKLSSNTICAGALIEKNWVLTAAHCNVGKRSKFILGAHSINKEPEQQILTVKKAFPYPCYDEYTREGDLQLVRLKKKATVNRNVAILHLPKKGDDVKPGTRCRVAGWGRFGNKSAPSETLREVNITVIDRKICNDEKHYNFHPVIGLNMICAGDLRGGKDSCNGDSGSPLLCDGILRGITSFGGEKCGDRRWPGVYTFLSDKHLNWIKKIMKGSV

[2] = system: lysis of P815 (H-2d) cells by cloned anti-Dd G4 cells
[3] = system: cytolytic activity of human CTLs; experiment: PMSF inhibition of cytolysis by human CTLs (2-h 51Cr-release assay); type: cell-based; conditions: 15 min in 6 mM PMSF
Description: ^51 Cr-release killing assays were performed as described; when measuring lectin-dependent cytolytic activity, Con A (Vector Laboratories,Inc., Burlingame, CA) was added to a final concentration of 10 μg/ml.
Various numbers of T cells were incubated for 15 min at 37° C. in K medium containing PMSF at 0, 2, 4, and 6 mM (PMSF was added in DMSO; the final concentration of DMSO in all instances was 1%). Cytotoxicity was assayed as above except that a 2 hour assay was used to minimize the effect of new protein synthesis.

[4] = system: human CTLs and target cells; experiment: Viability of human CTLs (trypan blue exclusion) and targets (51Cr release) after PMSF; conditions: 15 min in 6 mM PMSF
G4 cells = experiment: Toxicity of inhibitor for G4 cells (51Cr release, trypan blue recovery); type: cell-based, murine; conditions: PMSF at the concentrations shown (0.375-3 mM), 3% DMSO
[5] = biological target: T1, CTL serine esterase (BLT-serine esterase) in extract of murine CTL clone G4; experiment: biochemical; conditions: read-out: Percent Inhibition of esterase activity

Compound: aprotinin
- inhibition in vitro of purified BLT serine esterase (in words) [1]: potent inhibitor
- inhibition of serine esterase (in words) [1]: essentially totally inhibited
- inhibition of CTL-mediated lysis (in words) [2]: does not inhibit
- inhibition of cytotoxicity (in words) [2]: appears to inhibit cytotoxicity

Compound: O=S(=O)(F)Cc1ccccc1 [PMSF, phenylmethylsulfonyl fluoride]
- reduction of cytotoxicity [3]: approximately 75%
- Percent Inhibition of esterase activity [1]: 97.2
- inhibition of murine CTL serine esterase activity (in words) [1]: blocked completely; also recorded: inhibited; also recorded: completely inhibitable
- viability of CTLs (trypan blue exclusion) and targets (release of 51Cr) [4]: not affecting the viability
- added toxicity for G4 cells (51Cr release or reduced recovery of viable cells) (G4 cells): no added toxicity
- inhibition of lysis of P815 cells by G4 cells (in words) ([2]; nontoxic concentrations, G4 preincubated 30 minutes at 37° C.): clearly inhibits lysis

- inhibition of murine CTL serine esterase activity (in words) ([1]; murine enzyme): not
Compound: Cc1ccc(S(=O)(=O)N[C@@H](Cc2ccccc2)C(=O)CCl)cc1 [TPCK, N-tosyl-L-phenylalanine chloromethyl ketone]

Compound: Cc1ccc(S(=O)(=O)N[C@@H](CCCCN)C(=O)CCl)cc1 [TLCK, N-α-tosyl lysyl chloromethyl ketone]
- inhibition of murine CTL serine esterase activity (in words) [1]: not and not, however, inhibited
- inhibition of serine esterase (in words) [1]: not inhibited
- inhibition at 500 µM [5]: 4.6%

Compound: α2 macroglobulin
- inhibition of serine esterase (in words) [1]: not inhibited
